Measurements reported in paper PMC6458995, “MAP4K4 Inhibition Promotes Survival of Human Stem Cell-Derived Cardiomyocytes and Reduces Infarct Size In Vivo” (Cell Stem Cell, 2019).

How the values were obtained:
Assay in all cases: Dundee kinase panel
Assay type in all cases: biochemical
Details in all cases: for remaining activity at 1 µM: read-out: residual activity
PKCz = target: T1, PKCz (Homo sapiens, UniProt Q05513)
T1 construct: lines 1-140) and Reaction Biology
T1 sequence (Q05513 1-592): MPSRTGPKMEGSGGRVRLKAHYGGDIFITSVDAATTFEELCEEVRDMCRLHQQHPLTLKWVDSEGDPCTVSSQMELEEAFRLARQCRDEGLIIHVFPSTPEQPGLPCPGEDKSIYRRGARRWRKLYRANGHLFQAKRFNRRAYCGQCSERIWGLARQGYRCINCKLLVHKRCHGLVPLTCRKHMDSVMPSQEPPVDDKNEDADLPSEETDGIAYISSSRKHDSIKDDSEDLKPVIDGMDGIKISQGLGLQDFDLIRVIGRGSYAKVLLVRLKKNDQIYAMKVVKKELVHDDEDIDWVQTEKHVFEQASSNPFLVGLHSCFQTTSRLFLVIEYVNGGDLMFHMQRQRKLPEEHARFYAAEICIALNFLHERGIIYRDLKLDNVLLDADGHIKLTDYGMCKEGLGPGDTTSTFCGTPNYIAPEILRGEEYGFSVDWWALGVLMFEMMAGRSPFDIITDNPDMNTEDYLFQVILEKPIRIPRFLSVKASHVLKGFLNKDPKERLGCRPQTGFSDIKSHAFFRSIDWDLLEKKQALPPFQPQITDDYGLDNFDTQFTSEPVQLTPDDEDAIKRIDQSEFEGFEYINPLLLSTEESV
Protocol: (§1) Compounds were screened at 1 μM. For key hits, pIC50 values were then determined by HTRF as above. […] Stability in mouse and human liver microsomes was determined by Cyprotex.

SIK3 = target: T2, SIK3 (Homo sapiens, UniProt Q9Y2K2)
T2 construct: lines 1-140) and Reaction Biology
Protocol: as §1

SYK = target: T3, SYK (Homo sapiens, UniProt P43405)
T3 construct: lines 1-140) and Reaction Biology
Protocol: as §1

SmMLCK = target: T4, SmMLCK (Homo sapiens, UniProt Q15746)
T4 construct: lines 1-140) and Reaction Biology
Protocol: as §1

TAO1 = target: T5, TAO1 (Homo sapiens, UniProt Q7L7X3)
T5 construct: lines 1-140) and Reaction Biology
T5 sequence (Q7L7X3 1-1001): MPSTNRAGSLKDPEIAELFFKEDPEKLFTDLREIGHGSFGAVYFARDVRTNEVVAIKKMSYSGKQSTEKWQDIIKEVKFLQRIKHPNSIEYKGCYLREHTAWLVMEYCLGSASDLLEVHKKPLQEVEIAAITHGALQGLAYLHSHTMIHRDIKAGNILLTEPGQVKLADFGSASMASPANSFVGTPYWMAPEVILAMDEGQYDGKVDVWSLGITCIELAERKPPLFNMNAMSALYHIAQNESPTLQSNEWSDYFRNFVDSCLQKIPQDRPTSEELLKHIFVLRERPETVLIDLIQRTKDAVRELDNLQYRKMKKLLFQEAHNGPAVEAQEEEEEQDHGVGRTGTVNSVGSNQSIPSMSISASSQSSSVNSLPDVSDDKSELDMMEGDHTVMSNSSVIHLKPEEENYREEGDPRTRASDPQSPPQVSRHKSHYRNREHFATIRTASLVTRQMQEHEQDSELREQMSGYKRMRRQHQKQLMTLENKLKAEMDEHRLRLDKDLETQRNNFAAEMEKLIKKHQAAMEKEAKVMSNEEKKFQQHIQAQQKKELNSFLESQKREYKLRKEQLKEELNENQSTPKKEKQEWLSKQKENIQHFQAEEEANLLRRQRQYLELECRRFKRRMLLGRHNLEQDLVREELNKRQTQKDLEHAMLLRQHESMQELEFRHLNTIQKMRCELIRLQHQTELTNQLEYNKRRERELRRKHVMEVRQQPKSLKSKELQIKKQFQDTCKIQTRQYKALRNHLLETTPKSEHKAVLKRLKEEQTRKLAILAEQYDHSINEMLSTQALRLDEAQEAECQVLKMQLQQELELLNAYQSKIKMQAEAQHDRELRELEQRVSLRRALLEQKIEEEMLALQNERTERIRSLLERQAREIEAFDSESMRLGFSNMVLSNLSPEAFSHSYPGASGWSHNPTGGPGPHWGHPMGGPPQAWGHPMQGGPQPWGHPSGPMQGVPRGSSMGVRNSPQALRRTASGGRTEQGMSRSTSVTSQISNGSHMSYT
Protocol: as §1

VEGFR = target: T6, VEGFR (Homo sapiens, UniProt P17948)
T6 construct: lines 1-140) and Reaction Biology
T6 sequence (P17948 784-1338 limits assumed): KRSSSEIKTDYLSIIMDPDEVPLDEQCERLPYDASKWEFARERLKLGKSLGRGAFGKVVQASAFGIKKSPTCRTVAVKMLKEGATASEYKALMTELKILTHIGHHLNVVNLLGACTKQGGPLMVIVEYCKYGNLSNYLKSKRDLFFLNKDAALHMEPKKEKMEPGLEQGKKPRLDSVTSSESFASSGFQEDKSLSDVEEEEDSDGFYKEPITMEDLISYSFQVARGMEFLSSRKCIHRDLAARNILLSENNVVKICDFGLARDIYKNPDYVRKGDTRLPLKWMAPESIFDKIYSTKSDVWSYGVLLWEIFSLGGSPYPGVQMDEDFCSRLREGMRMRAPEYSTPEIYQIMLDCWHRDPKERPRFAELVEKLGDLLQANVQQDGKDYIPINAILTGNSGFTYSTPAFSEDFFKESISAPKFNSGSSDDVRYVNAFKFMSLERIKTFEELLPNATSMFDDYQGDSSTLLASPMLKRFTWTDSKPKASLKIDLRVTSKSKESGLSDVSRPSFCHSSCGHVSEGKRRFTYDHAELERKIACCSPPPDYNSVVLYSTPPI
Protocol: as §1

T4 sequence (Q15746 923-1914): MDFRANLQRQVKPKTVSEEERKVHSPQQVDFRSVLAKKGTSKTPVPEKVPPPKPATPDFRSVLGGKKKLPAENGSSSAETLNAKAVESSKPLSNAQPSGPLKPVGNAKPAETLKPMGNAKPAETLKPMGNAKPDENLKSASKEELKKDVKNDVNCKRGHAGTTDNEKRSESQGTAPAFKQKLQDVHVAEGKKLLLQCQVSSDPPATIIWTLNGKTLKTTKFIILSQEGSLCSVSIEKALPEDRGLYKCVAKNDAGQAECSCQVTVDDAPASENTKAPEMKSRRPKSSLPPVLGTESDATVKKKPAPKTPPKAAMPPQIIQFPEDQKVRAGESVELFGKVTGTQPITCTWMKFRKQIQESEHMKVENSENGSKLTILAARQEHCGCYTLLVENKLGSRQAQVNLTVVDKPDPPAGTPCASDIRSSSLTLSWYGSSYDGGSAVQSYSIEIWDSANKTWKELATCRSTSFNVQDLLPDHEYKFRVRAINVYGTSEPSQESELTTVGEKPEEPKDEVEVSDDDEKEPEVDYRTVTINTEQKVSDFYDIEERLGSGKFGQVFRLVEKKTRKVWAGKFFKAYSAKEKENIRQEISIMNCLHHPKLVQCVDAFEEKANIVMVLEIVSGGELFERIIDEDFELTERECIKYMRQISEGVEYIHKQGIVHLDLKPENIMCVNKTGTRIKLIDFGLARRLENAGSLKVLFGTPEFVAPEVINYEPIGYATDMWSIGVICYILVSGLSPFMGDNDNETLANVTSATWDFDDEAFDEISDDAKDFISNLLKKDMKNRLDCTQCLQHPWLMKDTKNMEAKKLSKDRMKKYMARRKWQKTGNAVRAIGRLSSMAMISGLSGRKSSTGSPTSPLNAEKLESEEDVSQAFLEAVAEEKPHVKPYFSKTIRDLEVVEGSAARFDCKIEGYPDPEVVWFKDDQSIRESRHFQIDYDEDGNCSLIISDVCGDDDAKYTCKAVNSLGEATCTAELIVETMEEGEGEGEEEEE
T2 sequence (Q9Y2K2 whole entry): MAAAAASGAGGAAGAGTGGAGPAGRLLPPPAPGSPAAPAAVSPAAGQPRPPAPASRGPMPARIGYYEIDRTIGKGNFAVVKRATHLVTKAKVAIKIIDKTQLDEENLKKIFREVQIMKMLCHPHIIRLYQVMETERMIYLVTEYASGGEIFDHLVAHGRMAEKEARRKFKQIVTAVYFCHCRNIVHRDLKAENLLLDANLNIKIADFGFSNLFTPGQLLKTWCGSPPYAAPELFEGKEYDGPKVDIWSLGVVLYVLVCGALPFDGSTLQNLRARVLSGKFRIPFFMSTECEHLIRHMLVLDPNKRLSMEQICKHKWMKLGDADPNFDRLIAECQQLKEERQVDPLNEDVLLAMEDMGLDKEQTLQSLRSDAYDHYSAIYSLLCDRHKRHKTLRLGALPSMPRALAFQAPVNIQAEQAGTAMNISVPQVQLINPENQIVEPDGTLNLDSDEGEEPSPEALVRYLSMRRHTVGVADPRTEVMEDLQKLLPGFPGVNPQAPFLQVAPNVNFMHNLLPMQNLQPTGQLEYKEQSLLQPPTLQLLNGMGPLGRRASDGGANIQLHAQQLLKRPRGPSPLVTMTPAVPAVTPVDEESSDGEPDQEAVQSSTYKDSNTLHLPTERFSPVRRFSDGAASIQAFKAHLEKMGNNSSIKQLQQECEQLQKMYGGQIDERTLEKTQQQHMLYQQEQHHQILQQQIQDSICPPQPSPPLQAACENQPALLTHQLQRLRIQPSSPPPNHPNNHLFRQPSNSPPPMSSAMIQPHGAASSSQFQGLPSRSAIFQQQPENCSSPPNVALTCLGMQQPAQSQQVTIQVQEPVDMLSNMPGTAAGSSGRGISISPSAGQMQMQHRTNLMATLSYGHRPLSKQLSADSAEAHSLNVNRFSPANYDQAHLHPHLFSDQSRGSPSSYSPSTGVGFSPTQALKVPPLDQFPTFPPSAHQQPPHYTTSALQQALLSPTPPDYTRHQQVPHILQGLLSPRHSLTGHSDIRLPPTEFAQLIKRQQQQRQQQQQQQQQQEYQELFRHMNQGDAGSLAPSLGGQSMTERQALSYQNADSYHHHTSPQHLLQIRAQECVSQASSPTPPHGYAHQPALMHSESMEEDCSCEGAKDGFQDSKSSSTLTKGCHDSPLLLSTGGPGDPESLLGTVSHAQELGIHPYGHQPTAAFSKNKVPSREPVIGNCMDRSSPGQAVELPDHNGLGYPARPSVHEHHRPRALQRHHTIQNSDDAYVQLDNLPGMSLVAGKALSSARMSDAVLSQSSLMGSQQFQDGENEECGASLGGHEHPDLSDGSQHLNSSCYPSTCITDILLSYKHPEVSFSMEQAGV

Row | Structure (SMILES) | remaining activity at 1 µM (PKCz) | remaining activity at 1 µM (SIK3) | remaining activity at 1 µM (SYK) | remaining activity at 1 µM (SmMLCK) | remaining activity at 1 µM (TAO1) | remaining activity at 1 µM (VEGFR) | residual activity (PKCz; 1 μM) | residual activity (SIK3; 1 μM) | residual activity (SYK; 1 μM) | residual activity (SmMLCK; 1 μM) | residual activity (TAO1; 1 μM) | residual activity (VEGFR; 1 μM)
1 | O=C1Cc2c([nH]c3ccc(Br)cc23)-c2ccccc2N1 [Kenpaullone] | 105% | 12% | 87% | 97% | 93% | 30% |  |  |  |  |  | 
2 | COCCOc1ccc(-c2cn(-c3ccccc3)c3nc[nH]c(=O)c23)cc1 [DMX-5804, 5-[4-(2-methoxy-ethoxy)-phenyl]-7-phenyl-3,7-dihydro-pyrrolo[2,3-d]pyrimidin-4-one] | 121% | 90% | 96% | 89% | 120% | 27% |  |  |  |  |  | 
3 | O=C1Nc2ccc(I)cc2/C1=C/c1cc(Br)c(O)c(Br)c1 [GW5074] | 88% | 65% | 72% | 40% | 96% | 29% |  |  |  |  |  | 
4 | Nc1ncc(C(=O)NC2CN(C(=O)C3CC3)C2)c2ccc(-c3cccc(F)c3)nc12 [GNE-495] |  |  |  |  |  |  | 82% | 87% | 94% | 68% | 75% | 92%
5 | Oc1ncnc2c1c(-c1ccccc1)cn2-c1ccccc1 [F1386-0303, 5,7-diphenyl-7H-pyrrolo[2,3-d]pyrimidin-4-ol] | 108% | 110% | 112% | 76% | 98% | 73% |  |  |  |  |  | 
